From PMC10377643, “Exploration of Bis-Cinnamido-Polyamines as Intrinsic Antimicrobial Agents and Antibiotic Enhancers” (Biomolecules, 2023)
≈ marks a conversion by molar mass, not a printed value. Read-outs that look alike come from different tables or passages of the source.

Experiments:
[1] = system: antimicrobial activity (microbes not named); set-up: method as in PMID 36982955; conditions: cited from earlier work
P. aeruginosa = system: P. aeruginosa; set-up: method as in PMID 36982955; conditions: cited from earlier work
A. baumannii AYE = experiment: Intrinsic MIC, A. baumannii AYE; assay type: cell-based; conditions: Acinetobacter baumannii, read-out: MIC alone, A. b
Protocol: (§1) Antibiotic enhancer concentrations were determined using previously reported protocols.

S. aureus ATCC 25923 = experiment: Antimicrobial MIC, S. aureus; assay type: cell-based; conditions: Staphylococcus aureus, ATCC25923, mean (n = 3)
Protocol: (§2) The susceptibility of bacterial strains S. aureus (ATCC 25923), E. coli (ATCC 25922) and P. aeruginosa (ATCC 27853) to antibiotics and compounds was determined using protocols reported previously. Additional antimicrobial evaluation against MRSA (ATCC 43300), Klebsiella pneumoniae (ATCC 700603), Acinetobacter baumannii (ATCC 19606), Candida albicans (ATCC 90028) and Cryptococcus neoformans (ATCC 208821) was undertaken at the Community for Open Antimicrobial Drug Discovery at The University of Queensland (Australia) according to their standard protocols reported previously.

K. pneumoniae ATCC 13883 = experiment: Intrinsic MIC, K. pneumoniae ATCC 13883; assay type: cell-based; conditions: Klebsiella pneumoniae
Protocol: as §1

P. aeruginosa PAO1 = experiment: Intrinsic MIC, P. aeruginosa PAO1; assay type: cell-based; conditions: Pseudomonas aeruginosa
Protocol: as §1

MRSA ATCC 43300 = experiment: Antimicrobial MIC, MRSA (CO-ADD); assay type: cell-based, methicillin-resistant S. aureus; conditions: Staphylococcus aureus, read-out: MIC MRSA
Protocol: as §2

[2] = A. baumannii AYE, substance alone
[3] = ATCC13883, K. pneumoniae ATCC 13883, substance alone, read-out: MIC alone, K. p
[4] = P. aeruginosa PAO1, substance alone (no antibiotic / no enhancer), read-out: MIC alone, P. a

| SMILES | MIC (A. baumannii AYE; [2]) | MIC (K. pneumoniae ATCC 13883; [3]) | MIC (P. aeruginosa PAO1; [4]) | further results |
| --- | --- | --- | --- | --- |
| O=C(CCc1ccccc1)NCCCNCCCCCCCCNCCCNC(=O)CCc1ccccc1 [Compound 18] |  |  |  | Antimicrobial activity [1]: devoid of antimicrobial activity; Ability to enhance the action of doxycycline towards P. aeruginosa (P. aeruginosa): devoid |
| O=C(N[C@H](CO)[C@H](O)c1ccc([N+](=O)[O-])cc1)C(Cl)Cl [chloramphenicol] | > 200 µM | > 200 µM | > 200 µM | MIC (S. aureus ATCC 25923): 1.5 to 3 µM (≈ 0.485 to 0.969 µg/mL) |
| CC[C@H]1OC(=O)[C@H](C)[C@@H](O[C@H]2C[C@@](C)(OC)[C@@H](O)[C@H](C)O2)[C@H](C)[C@@H](O[C@@H]2O[C@H](C)C[C@H](N(C)C)[C@H]2O)[C@](C)(O)C[C@@H](C)C(=O)[C@H](C)[C@@H](O)[C@]1(C)O [erythromycin] | > 200 µM | > 200 µM | > 200 µM |  |
| CN(C)c1ccc(O)c2c1C[C@H]1C[C@H]3[C@H](N(C)C)C(O)=C(C(N)=O)C(=O)[C@@]3(O)C(O)=C1C2=O [minocycline] | 27 µM (≈ 12.4 µg/mL) | 27 µM (≈ 12.4 µg/mL) | 70 µM |  |
| CCn1cc(C(=O)O)c(=O)c2ccc(C)nc21 [nalidixic acid] | > 200 µM | > 200 µM | > 200 µM |  |
| CN[C@H](CC(C)C)C(=O)N[C@H]1C(=O)N[C@@H](CC(N)=O)C(=O)N[C@H]2C(=O)N[C@H]3C(=O)N[C@H](C(=O)N[C@H](C(=O)O)c4cc(O)cc(O)c4-c4cc3ccc4O)[C@H](O)c3ccc(c(Cl)c3)Oc3cc2cc(c3O[C@@H]2O[C@H](CO)[C@@H](O)[C@H](O)[C@H]2O[C@H]2C[C@](C)(N)[C@H](O)[C@H](C)O2)Oc2ccc(cc2Cl)[C@H]1O [vancomycin] |  |  |  | MIC (A. baumannii AYE): 138 µM (≈ 200 µg/mL); MIC (K. pneumoniae ATCC 13883; ATCC13883, read-out: MIC alone, K. p): 138 µM (≈ 200 µg/mL); MIC (MRSA ATCC 43300): 0.7 µM (≈ 1.01 µg/mL); MIC (P. aeruginosa PAO1; PAO1, read-out: MIC alone, P. a): 138 µM (≈ 200 µg/mL) |
